# Data taken from publication PMC8399443, “Synthesis, Biological Evaluation, and In Silico Modeling of N-Substituted Quinoxaline-2-Carboxamides” (Pharmaceuticals, 2021).
# pIC50: −log10 of the molar value. “And” between values parts separate entries of the source, which are not always exact repeats. Equal values may be shown once. Read-outs that look alike come from different tables or passages of the source.
# Legend:
# [1] = system: Mtb H37Ra; assay: In vitro antimycobacterial activity, Microplate Alamar Blue Assay (MABA); assay type: cell-based, Mycobacterium tuberculosis; conditions: for SI (selectivity index): IC50 HepG2 (µM)/MIC Mtb H37Ra (µM); for MIC: Mycobacterium tuberculosis, H37RA, read-out: MIC Mtb H37Ra; for MIC Mtb H37Ra: MABA, pH of testing medium 6.6
# [2] = system: M. smegmatis; assay: In vitro antimycobacterial activity, MABA; assay type: cell-based, Mycobacterium smegmatis; conditions: Mycolicibacterium smegmatis, read-out: MIC M. smeg
# [3] = system: M. aurum; assay: In vitro antimycobacterial activity, MABA; assay type: cell-based, Mycobacterium aurum; conditions: Mycolicibacterium aurum, read-out: MIC M. aurum
# [4] = system: HepG2 cell line; assay: In vitro cytotoxicity, CellTiter 96 (MTS); assay type: cell-based; conditions: Homo sapiens, HepG2; cytotoxicity, 24 h incubation, CellTiter 96; read-out: HepG2 IC50
SMILES,SI (selectivity index) [1],MIC [1],MIC ([2]; MABA) [µg/mL],MIC ([3]; MABA) [µg/mL],pIC50 [4],MIC Mtb H37Ra [1],MIC [2],MIC [3]
O=C(NCc1cccc(F)c1)c1cnc2ccccc2n1 [Compound 21],8.92,7.81 µg/mL and 27.8 µM,≥ 500,≥ 500,3.61,–,–,–
COc1ccc(NC(=O)c2cnc3ccccc3n2)cc1 [Compound 5],–,≥ 125 µg/mL,≥ 125,≥ 125,< 4.30,–,–,–
O=C(NCc1cccc(C(F)(F)F)c1)c1cnc2ccccc2n1 [Compound 28],4.12,3.91 µg/mL and 11.8 µM,250,≥ 500,4.31,3.91 (28) µg/mL,–,–
O=C(Nc1cccc(O)c1)c1cnc2ccccc2n1 [Compound 2],>4.20,15.6 µg/mL and 58.9 µM,≥ 125,≥ 125,< 3.60,–,–,–
CN(C)c1ccc(NC(=O)c2cnc3ccccc3n2)cc1 [Compound 10],–,≥ 500 µg/mL,≥ 500,≥ 500,< 3.60,–,–,–
"O=C(O)c1nccnc1C(=O)Nc1cccc(C(F)(F)F)c1 [C00007 R=3-CF3, reference compound]",–,250 µg/mL,–,–,–,–,–,–
COc1ccc(OC)c(CNC(=O)c2cnc3ccccc3n2)c1 [Compound 18],–,3.91 µg/mL and 12.1 µM,–,–,< 3.00,–,≥ 500 µg/mL,≥ 500 µg/mL
O=C(NC1CCCCC1)c1cnc2ccccc2n1 [Compound 6],>8.17,31.2 µg/mL and 122 µM,31.2,≥ 500,< 3.00,–,122 µM,–
O=C(Nc1cccc(Cl)c1)c1cnc2ccccc2n1 [Compound 13],–,≥ 500 µg/mL,≥ 500,≥ 500,< 4.60,–,–,–
"O=C(NCCCc1ccccc1)c1cnc2ccccc2n1 [Compound 33, N-phenylpropylquinoxaline-2-carboxamide]",2.7,15.6 µg/mL and 53.6 µM,≥ 500,≥ 500,3.84,–,–,–
O=C(NCc1cccc(O)c1)c1cnc2ccccc2n1 [Compound 16],5.40,31.2 µg/mL and 112 µM,62.5,≥ 500,3.22,–,237 µM,–
Cc1ccc(CNC(=O)c2cnc3ccccc3n2)cc1 [Compound 24],3.11,7.81 µg/mL and 28.2 µM,≥ 250,≥ 250,4.06,–,–,–
O=C(NCc1ccc(Cl)cc1Cl)c1cnc2ccccc2n1 [Compound 30],–,≥ 500 µg/mL,≥ 125,≥ 125,< 4.00,–,–,–
COc1ccc(CNC(=O)c2cnc3ccccc3n2)cc1 [Compound 20],16.1,3.91 µg/mL and 11.8 µM,–,–,3.68,3.91 (20) µg/mL,≥ 250 µg/mL,125 µg/mL
"COc1ccc(NC(=O)c2nccnc2C(=O)O)cc1 [C00007 R=4-OCH3, reference compound]",–,≥ 500 µg/mL,–,–,–,–,–,–
O=C(Nc1ccccc1F)c1cnc2ccccc2n1 [Compound 7],–,≥ 500 µg/mL,62.5,≥ 500,< 4.00,–,234 µM,–
O=C(NCc1cccc(Cl)c1)c1cnc2ccccc2n1 [Compound 26],5.34,7.81 µg/mL and 26.2 µM,31.2,31.2,3.85,–,105 µM,105 µM
"CO[C@H]1/C=C/O[C@@]2(C)Oc3c(C)c(O)c4c(O)c(c(/C=N/N5CCN(C)CC5)c(O)c4c3C2=O)NC(=O)/C(C)=C\C=C\[C@H](C)[C@H](O)[C@@H](C)[C@@H](O)[C@@H](C)[C@H](OC(C)=O)[C@@H]1C [RIF, rifampicin, reference compound]",–,0.00313 µg/mL and 0.0038 µM,–,–,< 3.30,–,12.5 µg/mL,0.39 µg/mL

SMILES,SI (selectivity index) [1],MIC [1],MIC ([2]; MABA) [µg/mL],MIC ([3]; MABA) [µg/mL],pIC50 [4],MIC Mtb H37Ra [1],MIC [2],MIC [3]
O=C(NCc1ccc(O)cc1)c1cnc2ccccc2n1 [Compound 17],>1.1,62.5 µg/mL and 224 µM,≥ 500,500,< 3.60,–,–,–
"O=C(O)c1nccnc1C(=O)Nc1ccccc1 [C00007 R=H, reference compound]",–,≥ 500 µg/mL,–,–,–,–,–,–
O=C(Nc1cccc(C(F)(F)F)c1)c1cnc2ccccc2n1 [Compound 14],–,≥ 500 µg/mL,≥ 125,≥ 125,< 4.60,–,–,–
COc1cccc(CNC(=O)c2cnc3ccccc3n2)c1 [Compound 19],>21.3,15.6 µg/mL and 47 µM,–,–,< 3.00,–,≥ 500 µg/mL,≥ 500 µg/mL
O=C(Nc1cccc(F)c1)c1cnc2ccccc2n1 [Compound 8],–,250 µg/mL,≥ 500,≥ 500,< 4.00,–,–,–
"NNC(=O)c1ccncc1 [INH, isoniazid, reference compound]",–,0.25 µg/mL and 1.82 µM,–,–,< 3.00,–,15.6 µg/mL,3.91 µg/mL
Cc1ccccc1CNC(=O)c1cnc2ccccc2n1 [Compound 23],5.60,7.81 µg/mL and 28.2 µM,≥ 125,≥ 125,3.80,–,–,–
O=C(NCc1ccc(Cl)c(Cl)c1)c1cnc2ccccc2n1 [Compound 31],2.80,7.81 µg/mL and 23.5 µM,≥ 500,≥ 500,4.17,–,–,–
O=C(Nc1ccc(F)cc1)c1cnc2ccccc2n1 [Compound 9],>1.71,15.6 µg/mL and 58.5 µM,≥ 500,≥ 500,< 4.00,–,–,–
COc1cc(NC(=O)c2cnc3ccccc3n2)cc(OC)c1 [Compound 4],>0.12,62.5 µg/mL and 202 µM,≥ 125,≥ 125,< 4.60,–,–,–
O=C(NCc1ccc(Br)cc1)c1cnc2ccccc2n1 [Compound 27],>4.4,7.81 µg/mL and 22.8 µM,≥ 500,≥ 500,< 4.00,–,–,–
O=C(NCc1ccc(F)cc1F)c1cnc2ccccc2n1 [Compound 22],–,≥ 500 µg/mL,≥ 500,≥ 500,< 4.60,–,–,–
O=C(NCc1ccccc1Cl)c1cnc2ccccc2n1 [Compound 25],–,15.6 µg/mL and 52.5 µM,–,–,3.28,–,≥ 500 µg/mL,≥ 500 µg/mL
O=C(Nc1ccccc1)c1cnc2ccccc2n1 [Compound 1],–,≥ 500 µg/mL,≥ 250,≥ 250,< 4.30,–,–,–
O=C(Nc1ccccc1Cl)c1cnc2ccccc2n1 [Compound 12],–,≥ 125 µg/mL,≥ 125,≥ 125,< 4.30,–,–,–
O=C(Nc1ccc(O)cc1)c1cnc2ccccc2n1 [Compound 3],>1.01,62.5 µg/mL and 236 µM,≥ 500,≥ 500,< 3.60,–,–,–
O=C(NCc1ccccc1)c1cnc2ccccc2n1 [Compound 15],>17,15.6 µg/mL and 59.3 µM,≥ 125,≥ 125,< 3.00,15.625 (15) µg/mL,–,–
O=C(Nc1ccc(F)cc1F)c1cnc2ccccc2n1 [Compound 11],–,≥ 500 µg/mL,≥ 500,≥ 500,< 3.60,–,–,–
